Consider 4 molecules from patent US9434610B2, “HPMA—docetaxel conjugates and uses therefore” (REXAHN PHARMACEUTICALS, INC., priority 2008, dated 2016).

One experiment deals with mucin-1 (Homo sapiens, UniProt P15941). The conditions noted are these: specific ligand of mucin-1; cited from earlier work.
In experiment [1] the target is glycosylphosphatidylinositol-linked folate receptor (FR). The conditions noted are these: high affinity folate receptor; cited from earlier work.
Another experiment has as its target T1, reduced folate carrier (Homo sapiens, UniProt P41440).
T1 sequence (P41440 1-591): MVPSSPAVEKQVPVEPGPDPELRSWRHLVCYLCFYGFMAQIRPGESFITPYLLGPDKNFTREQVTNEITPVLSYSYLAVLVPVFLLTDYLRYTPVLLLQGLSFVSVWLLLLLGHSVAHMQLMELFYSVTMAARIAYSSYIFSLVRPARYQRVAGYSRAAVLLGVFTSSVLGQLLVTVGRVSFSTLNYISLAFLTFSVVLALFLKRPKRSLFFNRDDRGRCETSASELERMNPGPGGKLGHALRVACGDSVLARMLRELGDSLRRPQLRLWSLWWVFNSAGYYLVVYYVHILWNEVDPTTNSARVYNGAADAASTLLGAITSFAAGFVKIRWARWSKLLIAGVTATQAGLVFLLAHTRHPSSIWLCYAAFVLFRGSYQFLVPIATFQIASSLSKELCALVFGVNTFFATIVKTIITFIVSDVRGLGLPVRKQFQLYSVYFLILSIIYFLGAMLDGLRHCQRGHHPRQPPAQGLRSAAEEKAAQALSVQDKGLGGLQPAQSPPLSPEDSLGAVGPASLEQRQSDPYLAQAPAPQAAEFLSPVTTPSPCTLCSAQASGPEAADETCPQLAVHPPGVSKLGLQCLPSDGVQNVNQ
The conditions noted are these: low affinity reduced folate carrier, cellular uptake; cited from earlier work.

The next experiment relates to UMRC2 (kidney). Nature of the experiment: In vitro cell proliferation (SRB) assay, UMRC2. The format is cell-based. The conditions noted are these: Homo sapiens, 96 hours, drug equivalent. The procedure: (§1) Cancer cell lines to determine the effect of HPMA-drug conjugates were obtained from the following sources: Human MDA-MB-231 (breast), HCT116 (colon) and PANC-1 (pancreas), from the American Type Culture Collection (ATCC) (Manassas, Va.). UMRC2 (kidney) from United States National Cancer Institute (Bethesda, Md.). Cells were maintained in Dulbecco's modified Eagle's medium (“DMEM”, Invitrogen) supplemented with 10% FBS, P/S and 10 mM HEPES. All cells were incubated at 37° C. under humidified 5% CO2.
(§2) The growth inhibition assay of HPMA-drug conjugates against human cancer cell lines was performed using the Sulforhodamine B (“SRB”) method (Skehan et al., J. National Cancer Institute, 82: 1107-1112 (1990)). […] After 5 minutes agitation in 10 mM Tris solution, the absorbance of each well was measured at 530 nm using Benchmark Plus Microplate reader (Bio-Rad Laboratories, Hercules, Calif.). The absorbance value provides a direct measure of the number of live cells post-treatment with HPMA copolymer-drug conjugates.
(§3) To translate the OD530 values into the number of live cells in each well, the OD530 values were compared to those on standard OD530-versus-cell number curves generated for each cell line. The percent survival was calculated using the formula: % Survival=live cell number[test]/live cell number[control]×100
(§4) The IC50 values were calculated by non-linear regression analysis.

Another experiment concerns MDA-MB-231 (breast). Nature of the experiment: In vitro cell proliferation (SRB) assay, MDA-MB-231. The format is cell-based. The settings on record: Homo sapiens, 96 hours, drug equivalent. The procedure: as §1, §2, §3, §4
The test system of the next experiment is PANC-1 (pancreas). Nature of the experiment: In vitro cell proliferation (SRB) assay, PANC-1. The conditions noted are these: Homo sapiens, 96 hours, drug equivalent. The class given is cell-based. The method, then:
as §1, §2, §3, §4

The subject of another experiment is HCT116 (colon). Nature of the experiment: In vitro cell proliferation (SRB) assay, HCT116. The class given is cell-based. The settings on record: Homo sapiens, HCT-116, 96 hours, drug equivalent. The procedure:
as §1, §2, §3, §4

mucin-1, sequence (P15941 24-1255): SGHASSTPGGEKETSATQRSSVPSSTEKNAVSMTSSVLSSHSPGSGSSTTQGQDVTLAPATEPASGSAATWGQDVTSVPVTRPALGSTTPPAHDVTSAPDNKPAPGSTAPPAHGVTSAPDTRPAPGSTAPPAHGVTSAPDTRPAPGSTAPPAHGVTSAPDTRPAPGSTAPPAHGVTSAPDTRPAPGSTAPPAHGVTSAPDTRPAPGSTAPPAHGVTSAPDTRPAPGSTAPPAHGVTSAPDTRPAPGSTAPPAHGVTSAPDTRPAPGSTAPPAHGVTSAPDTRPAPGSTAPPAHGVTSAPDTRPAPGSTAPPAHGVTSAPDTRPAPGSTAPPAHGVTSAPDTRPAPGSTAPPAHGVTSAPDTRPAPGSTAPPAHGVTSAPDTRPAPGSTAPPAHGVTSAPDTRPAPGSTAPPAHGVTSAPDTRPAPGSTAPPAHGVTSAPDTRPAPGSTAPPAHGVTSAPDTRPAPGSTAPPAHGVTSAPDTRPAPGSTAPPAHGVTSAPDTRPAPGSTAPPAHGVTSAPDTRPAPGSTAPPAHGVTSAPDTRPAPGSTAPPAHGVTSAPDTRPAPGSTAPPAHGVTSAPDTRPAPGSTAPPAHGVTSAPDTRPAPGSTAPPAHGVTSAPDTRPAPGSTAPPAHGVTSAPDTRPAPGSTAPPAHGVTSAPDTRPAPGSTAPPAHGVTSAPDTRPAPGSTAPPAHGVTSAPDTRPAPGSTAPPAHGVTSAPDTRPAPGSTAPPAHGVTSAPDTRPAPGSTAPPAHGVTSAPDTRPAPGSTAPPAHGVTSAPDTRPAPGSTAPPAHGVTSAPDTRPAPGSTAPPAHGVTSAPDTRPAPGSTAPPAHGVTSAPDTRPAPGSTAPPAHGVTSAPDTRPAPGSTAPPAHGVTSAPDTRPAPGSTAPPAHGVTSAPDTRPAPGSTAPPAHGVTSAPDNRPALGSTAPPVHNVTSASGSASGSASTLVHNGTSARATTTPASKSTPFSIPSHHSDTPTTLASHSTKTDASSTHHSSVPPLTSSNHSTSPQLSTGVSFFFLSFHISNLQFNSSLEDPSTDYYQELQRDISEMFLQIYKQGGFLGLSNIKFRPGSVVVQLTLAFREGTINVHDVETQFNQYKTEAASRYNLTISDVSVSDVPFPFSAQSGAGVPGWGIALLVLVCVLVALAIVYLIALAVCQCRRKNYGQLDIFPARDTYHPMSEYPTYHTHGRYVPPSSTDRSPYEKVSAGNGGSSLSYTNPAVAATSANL

For the molecule “synthetic peptide YCAREPPTRTFAYWG (SEQ ID NO: 9), specific ligand of mucin-1 [EPPT1]”, the Kd (in general, the concentration at which binding is half-saturated) with mucin-1 was 20 µM.
Consider `Nc1nc2ncc(CNc3ccc(C(=O)N[C@@H](CCC(=O)O)C(=O)O)cc3)nc2c(=O)[nH]1` [folates, Folic acid], for which the Kd in experiment [1] is roughly 0.0001 µM. Besides, the Km (in general, the substrate concentration at which the rate is half of its maximum) on reduced folate carrier was roughly 1 µM.
Consider `Nc1ccn([C@@H]2O[C@H](CO)[C@@H](O)C2(F)F)c(=O)n1` [Gemcitabine], for which the IC50 (as a rule, the concentration needed to halve the response being measured) worked out at 0.29 µM in the experiment with UMRC2 (kidney), 0.22 µM in the experiment with MDA-MB-231 (breast), 0.59 µM in the experiment with PANC-1 (pancreas) and 0.056 µM with HCT116 (colon).
For `CC(=O)O[C@@]12CO[C@@H]1C[C@H](O)[C@@]1(C)C(=O)[C@H](O)C3=C(C)[C@@H](OC(=O)[C@H](O)[C@@H](NC(=O)OC(C)(C)C)c4ccccc4)C[C@@](O)([C@@H](OC(=O)c4ccccc4)[C@H]21)C3(C)C` [Docetaxel], in that order: 0.026 µM, 0.00077 µM, 0.0012 µM and 0.00055 µM.
